Results published in patent US9725417B2, “Cdc42 inhibitor and uses thereof” (priority 2011, dated 2017).
Values after ≈ are worked out from the molar mass of the structure shown.

Columns and labels:
[1] = test system: Cdc42-mediated microspike/filopodia formation in Swiss 3T3 fibroblasts; experiment: Cdc42-mediated microspike/filopodia formation in serum-starved Swiss 3T3 fibroblasts; assay type: cell-based, mouse; conditions: 50 μM for 1 hour, then Cdc42 activator 2 minutes
Description: 30 selected ZCL compounds were assessed for their ability to inhibit Cdc42-mediated microspike/filopodia formation in serum-starved Swiss 3T3 fibroblasts. Actin-based microspikes/filopodia are characteristic of Cdc42 activity in cultured fibroblastic cells. […] When arrested fibroblasts were briefly stimulated with 1 unit/mL of a commercial Cdc42 activator, a dramatic increase in microspike number and decrease in stress fibers occurred (FIG. 2A, Activator). Compound ZCL278 was applied at 50 μM for 1 hour and then stimulated with the Cdc42 activator for 2 minute. The cell periphery of ZCL278-treated cells resembles control cells with few microspikes (FIG. 2A, ZCL278).

[2] = test system: growth cone filopodia of cortical neurons; experiment: Time-lapse video microscopy of growth cone dynamics in cortical neurons; assay type: cell-based, mouse; conditions: ZCL278 treatment, cortical neuron growth cone
Description: (§1) Time-lapsed video light microscopy was used to observe the effects of ZCL278 on neuronal growth cone dynamics, Hamamatsu Orca digital camera was used to record the cell images under 63× magnification for 10 minute. 300 ms exposure for imaging was used to minimize phototoxicity. The images were analyzed using MetaMorph software and statistical analysis was performed. At 5 days cultured in vitro, cortical neurons extended neurites with multiple branches (FIG. 6A, Control). 50 μM of ZCL278 was applied for 5 and 10 minutes, while DMSO-treated neurons were maintained as negative controls.
Cdc42 is also widely known to control filopodia and microspikes at the leading edge of migrating growth cones. […] Thus, these studies further support ZCL278 as an effective small-molecule inhibitor of Cdc42-mediated neuronal branching and growth cone motility.

phospho-Rac/Cdc42 = experiment: Western blot of phospho-Rac/Cdc42 (Serine 71) in PC-3 cells; assay type: cell-based, human; conditions: 50 μM for 5, 10 and 15 minutes
Description: First, Cdc42 activation was investigated in human metastatic prostate cancer PC-3 cells that were treated with the Cdc42 activator or 50 μM ZCL278 for 5, 10, and 15 minutes. Serine 71 phosphorylation is known to negatively regulate Rac/Cdc42 activity, thus an increase: in phospho-Rac/Cdc42 expression is indicative of a decrease in active (GTP-bound) Rac/Cdc42.
(§2) The Western blot: PC3 cells cultured to approximately 70% of the density, then removed serum and cultured for 16 hours, with addition of drugs: 1 unit/mL Cdc42 agonist (cytoskeleton) 5 uM, 50 uM ZCL278 to treat cells for 5, 10, and 15 minutes respectively. Cell lysis buffer (Formulation: 50 mM Tris buffer solution pH 7.5, 10 mM magnesium chloride, 0.5 M sodium chloride, 1% Triton X-100 and protease inhibitors) cell lysis and centrifuged at 14000 rpm and 4° C. to obtain extracted protein samples. Western blot analysis was conducted using antibody: phosphorylated Rac1/Cdc42 (Milipore Company), phosphorylated WASP (Assay Biotech Company), all at 1:1000, and GAPDH antibody (Calbiochem Company) on PVDF membrane for chemiluminescence development.

GTP-bound (active) Cdc42 = molecular target: T1, GTP-bound (active) Cdc42 (Mus musculus, UniProt P60766); experiment: G-LISA of GTP-bound (active) Cdc42 in Swiss 3T3 lysates; assay type: cell-based; conditions: then 1 unit/mL Cdc42 activator 2 minutes
T1 construct: endogenous in cells; host or cells: Swiss 3T3 fibroblasts (mouse)
Description: Serine 71 phosphorylation can occur on both Rac and Cdc42. To directly assess specific Cdc42 activation and inactivation, a G-LISA, an ELISA-based assay that allows a quantitative determination of the levels of GTP-bound (active) Cdc42 in cellular lysates was utilized. Serum-starved Swiss 3T3 fibroblasts were incubated for 1 hour with 50 μM ZCL278 or 10 μM NSC23766 (Rac inhibitor), followed by 2 minutes of stimulation with 1 unit/mL Cdc42 activator.
Finally, the ability of NSC23766 to cross-inhibit Cdc42 activation was analyzed. NSC23766 was developed in a similar manner as ZCL278; however, it is specific to Rac and should therefore act as an additional negative control in this assay.
G-LiSA kit: Swiss 3T3 cells were cultured to 40% of the growth density, then removed serum and cultured for 48 hours, treated with Cdc42 agonist for 1 minute, and treated with the 50 uM ZCL278 and 10 uM NSC23766. Cell lysis proteins were extracted according to kit instructions, and analysis of the quantification of total protein concentration to be 0.15 mg/ml. Untreated cells or cells treated with buffer were used as negative control while the agonist treated cells and active Cdc42 protein were used as a positive control. Enzyme linked immunosorbent assay measured the absorbance value of each sample 490 nm light wave.

[3] = test system: primary neonatal cortical neurons; experiment: Neuronal branching in primary neonatal cortical neurons; assay type: cell-based, mouse; conditions: 50 μM for 5 and 10 minutes, 5 days in vitro
Description: Primary neonatal day-one mouse brain was incubated with 0.25% trypsin HBSS for 15 minutes at 37° C., gently separated neurons were plated on poly-L-lysine coated coverslips, incubated with DMEM containing 10% bovine serum for 16 hours, then the media was changed to Neurobasal (Invitrogen). At 5 days in vitro, the cells were treated with either DMSO or 50 uM ZCL278 for 5 or 10 minutes, then fixed in 4% paraformaldehyde for 15 minutes. Fluorescein-phalloidin was applied to stain for F-actin structure and the neuronal morphology was observed under the Zeiss light microscope.
as §1

active Cdc42 = experiment: Immunofluorescence staining of active Cdc42 in Swiss 3T3 cells; assay type: cell-based, mouse; conditions: 50 uM ZCL278 or 10 uM NSC23766, Cdc42 agonist 1 unit/ml
Description: (§3) Immunofluorescent staining: Swiss3T3 cells were grown on coverslips to 30% confluence. In serum-deprived culture, cells were treated with 10 uM NSC23766 or 50 uM ZCL278 for 1 hour followed by 1 unit/mL Cdc42 agonists (Cytoskeleton Products) treatment for 1 minute. Added agonist alone was used as a positive control while DMSO was used as a negative control. Cells on the coverslips were fixed in 4% paraformaldehyde for 15 minutes, and in 0.2% Triton X-100 for permeabilization for 15 minutes and then blocked in 10% BSA for 30 minutes.
(§4) Incubation with antibodies: anti-active Cdc42 (mouse antibody, Neweast Biosciences); phosphorylated RhoA antibody (rabbit antibody, Santa Cruz Biotechnology Company); GM130 antibody (mouse antibody, BD Biosciences Company). The next step was to apply corresponding secondary antibody. Rhodamine, Phalloidin was incubated for 1 hour at room temperature to observe filamentous actin under the Zeiss Axiovert fluorescent light microscopy of cells staining. Image processing software MetaMorph-5 was used to randomly select cells in randomly selected five-point pixels to obtain the average number of each group for pixel intensity values.
(§5) Determination of selective inhibition of Cdc42 activation by ZCL278 at the cellular level. […] FIG. 3C: Pixel intensity of phospho-RhoA in cells after treatments with Activator, ZCL278, or NSC23766 was quantified. […]

PC-3 cells [4] = experiment: Wound healing (migration) assay in PC-3 cells; assay type: cell-based, human; conditions: 24 hours; for wound closure: control 41%
Description: Filopodia are dynamic structures that aid cells in pathfinding and migration, and are largely controlled by Cdc42 activity. Using a metastatic line of human prostate cancer cells (PC-3), a wound healing assay was used in order to elucidate the effects of ZCL278 on cellular migration. 1 unit/ml Cdc42 activator; 50 uM or 5 uM of ZCL278; and 10 uM […] respectively, were used to treat cells for 24 hours, with Cdc42 activator as positive control, and no treatment as negative control. Cells were photographed at 0 and 24 hours following drug treatments and MetaMorph software was used to determine the distances cells had migrated. Black line indicates the boundary of wounded area. Each experiment was tested with p value (p<0.05).
The experiment was repeated three times and the means were obtained:**; p<0.01,*:p<0.05. Wound closure was less pronounced at 50 μM (8%) than 5 μM (30%) concentrations.

phospho-WASP = experiment: Western blot of phospho-WASP in PC-3 cells; assay type: cell-based, human; conditions: 50 μM, up to 15 minutes
Description: Wiskott-Aldrich syndrome Protein WASP) is a downstream effector of Cdc42 activation. Tyrosine phosphorylation WASP is linked to rapid Cdc42 degradation following its activation. […] Thus, ZCL278 inhibits Rac/Cdc42 phosphorylation in a time-dependent manner and maintains tyrosine phosphorylation of WASP.
as §2

Cdc42 [5] = molecular target: T2, Cdc42 (Homo sapiens, UniProt P60953); experiment: Fluorescence titration of purified Cdc42 with ZCL278 (tryptophan fluorescence); assay type: binding; conditions: emission monitored at 350 nm
Description: The binding affinity of ZCL278 and Cdc42 was assessed by using two independent biophysical methods. First, fluorescence titration of purified Cdc42 ZCL278 was carded out by monitoring the change of fluorescence intensity of a tryptophan residue on CAc42 upon ZCL278 binding. As ZCL278 has a weak absorption peak at 310 nm, to avoid any experimental error that might result from potential fluorescence quenching by ZCL278, the fluorescence emission of Cdc42 was monitored at 350 nm, at which ZCL278 has a negligible absorption. […] These species in solution may have modifying effects on membrane transport and binding to Cdc42.

Cdc42 [6] = molecular target: T2, Cdc42; experiment: Surface plasmon resonance, purified Cdc42 immobilized on CM5 chips; assay type: binding; conditions: SPR
Solubility determination = assay type: physicochemical
PC-3 cells [7] = experiment: Trypan blue dye exclusion cell viability in PC-3 cells; assay type: cell-based; conditions: 50 μM ZCL278 or 10 μM NSC23766, 24 hours, PC-3, trypan blue
Description: Examination of cell survival: PC3 cells were plated at 75000/ml for 48 hours, serum was removed and 50 uM ZCL278 or 10 uM NSC23766 was added, and then continue to culture for 24 hours before staining with trypan blue to determine cell survival rate.
In order to ensure that decreases in cellular migration seen with ZCL278 treatment was due to Cdc42 inhibition (or Rae inhibition when treated with NSC23766) rather than cell death, cell viability was tested using the trypan blue dye exclusion assay. PC-3 cells were arrested in G0, and then 50 μM ZCL278 or 10 μM NSC23766 was applied for 24 hours. […] Therefore, the differences seen in migratory ability is due to ZCL278-mediated Cdc42 inhibition or NSC23766-mediated Rac inhibition and not cell death.

GM130 = experiment: GM130-docked Golgi organization in Swiss 3T3 cells; assay type: cell-based, mouse; conditions: 50 uM ZCL278 or 10 uM NSC23766, Swiss 3T3
Description: as §3
as §4, with “values. […]” for “values.”

phosphorylated RhoA = experiment: Immunofluorescence staining of phosphorylated RhoA in Swiss 3T3 cells; assay type: cell-based, mouse; conditions: 50 uM ZCL278, 10 uM NSC23766 or 1 unit/ml Cdc42 agonist
Description: as §3, §4, §5

T2 sequence (P60953 whole entry, species assumed): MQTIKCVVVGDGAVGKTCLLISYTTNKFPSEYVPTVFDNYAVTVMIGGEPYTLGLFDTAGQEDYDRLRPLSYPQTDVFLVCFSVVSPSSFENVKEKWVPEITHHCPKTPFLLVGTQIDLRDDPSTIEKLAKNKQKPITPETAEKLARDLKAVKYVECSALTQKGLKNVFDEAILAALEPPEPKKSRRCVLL
T1 sequence (P60766 whole entry): as the sequence (P60953 whole entry, species assumed) above

Row | SMILES | inhibition of microspike formation [1] | time to retraction of filopodia [2] [min] | Rac/Cdc42 phosphorylation (Serine 71) (phospho-Rac/Cdc42) | decrease in GTP-Cdc42 content compared with cells treated solely with the activator (GTP-bound (active) Cdc42; 50 μM ZCL278 1 hour) [%] | neuronal branch number [3] | perinuclear distribution and immunoreactivity of active Cdc42 (active Cdc42) | wound closure (PC-3 cells [4]; 5 μM) [%] | wound closure (PC-3 cells [4]; 50 μM) [%] | phospho-WASP expression (phospho-WASP) | Kd (Cdc42 [5]) [µM] | Kd (Cdc42 [6]) [µM] | solubility (Solubility determination) [µM] | cell viability versus non-treated cells (PC-3 cells [7]) | GM130 immunoreactivity and distribution (GM130) | pixel intensity of phospho-RhoA (phosphorylated RhoA) | effect on GTP-Cdc42 content (GTP-bound (active) Cdc42; 10 μM NSC23766 1 hour) | cellular migration (PC-3 cells [4]; 10 uM)
1 | Cc1cc(C)nc(NS(=O)(=O)c2ccc(NC(=S)NC(=O)COc3ccc(Br)cc3Cl)cc2)n1 [ZCL278, 4-(3-(2-(4-Bromo-2-chlorophenoxy)acetyl)thioureido)-N-(4,6-dimethylpyrimidin-2yl)benzenesulfonamide] | obvious inhibition of microspike formation | ≤ 4 | time-dependent increase | ~80 | significantly reduced | obviously reduced this distribution | 30 | 8 | does not suppress phospho-WASP activity | 6.4 | 11.4 | 181 (≈ 106 µg/mL) | no difference in viability | clear reduction of GM130 immunoreactivity | did not alter the phosphorylation RhoA |  | 
2 | CCN(CC)CCCC(C)Nc1nc(C)cc(Nc2ccc3nc(C)cc(N)c3c2)n1 (stereo not drawn) [NSC23766, reference compound] |  |  |  |  |  | did not have similar effects |  |  |  |  |  |  | no difference in viability | did not significantly after GM130 expression or distribution | did not alter the phosphorylation RhoA | does not reduce GTP-Cdc42 content | significantly reduced
